Assay results reported in US20030207933A1, “Compositions and methods for increasing the sensitivity of apoptosis-resistant tumor cells to inducers of apoptosis” (priority 2002, published 2003).
Entries after “also recorded” stand apart in the source; their conditions may differ.

Experiments:
HL-60 Bcl-2 cells = experiment: DNA fragmentation (release of 3H-labeled DNA fragments) in Bcl-2-transfected HL-60 cells; assay type: cell-based, human
Ramos B lymphoma cells = experiment: Dox cytotoxicity by trypan blue exclusion in Ramos cells; assay type: cell-based; settings: 24 hr
Method: In the present study, the sensitizing activity of W-188 and W-143 was tested in the Raji and Ramos cell lines. Since these two human B lymphoma lines naturally express high levels of anti-apoptotic Bcl-2 proteins, they may be more clinically relevant than the transfected HL-60-Bcl-2 line.
The sensitizing effects of W-143 and W-188 were first tested on these lines in vitro. […] Ramos cells were cultured with different concentrations of Dox with and without W-143 or W-188 at 20 μg/ml for 24 hr, and then viability assessed microscopically by counting at least 100 cells.

mice [1] = experiment: Acute single dose toxicity; assay type: in vivo; settings: 1000 mg/kg single dose
Method: The present study assessed the acute single-dose toxicity of W-188 and W-143.
Solutions of W-188 were dissolved in DMSO and injected i.p. in groups of three mice each as well as vehicle control at 500 mg/kg.
Since W-143 is water-soluble, higher doses could be tested.
Therefore, the MTD (maximum tolerated dose) for a single dose of either compound is estimated to be 500 mg/kg.

mice [2] = experiment: Multiple dose toxicity with histopathological analysis; assay type: in vivo
Method: In the present study, more extensive toxicity studies with histopathological analysis of seven different tissues was performed on W-143 at a commercial lab.
Groups of six mice (3 male and 3 females) each were given three i.p. injections at two day intervals of vehicle, doxorubicin 5 mg/kg alone, W-143 200 mg/kg alone or both together. On day 5 and day 15 after the last injection, mice were sacrificed, necropsied, and tissue samples processed. Tissues examined include bone marrow, liver, heart, small and large intestine, 1 sex organ, and kidney.

RIF-1 fibrosarcoma = RIF-1 fibrosarcoma tumor growth in vivo; design: species or system mice; settings: for Inhibition of tumor growth compared to vehicle control: day 15
From the text: The present study tested in the ability of W-188 to synergize with Dox and inhibit tumor growth in vivo. The RIF-1 fibrosarcoma model was used because this model has been well-characterized, and naturally expresses high Bcl-2 levels and has a consistent growth pattern (Nahabedian, M. Y., et al., J. Natl. Can. Inst., 1988, 80:739; Chang, M-J., et al., Cancer Res., 1994, 54:5380; Srivastana, M., et al., J. Biol. Chem., 2001, 276:15481).
Groups of five mice each were inoculated s.c. with RIF-1 cells. The tumors were allowed to grow for 12 days to a size of 0.5 cm diameter, which was designated day 0. The mice were then given five i.p. injections every other day with vehicle, Dox 2.5 mg/kg, Dox 5.0 mg/kg, W-188 100 mg/kg, and Dox 5.0 mg/kg+W-188 100 mg/kg. The mice were weighed and the tumor size measured every day.
The protocol was similar to that described for the W-188 experiment in Example 8, except that in this study, mice with established tumors received only three injections of W-143 or Dox every other day starting on day 0.

Bcl-2 = experiment: Western blot for expression of Bcl-2 in RIF-1 tumors in vivo; design: species or system mice; settings: day 15
From the text: Cells were dissociated, lysed, and the nuclei and mitochondria separated by differential centrifugation. RIF-1 cells cultured in vitro were processed in a similar manner as a positive control. Equal amounts of protein extracts were separated by electrophoresis and analyzed by Western blot for expression of Bcl-2. […] The pattern of Bcl-2 expression was similar in the nuclei, although the overall levels were lower than in the mitochondria. […] Most likely, this discrepancy can be explained by the fact that this line is transfected with exogenous Bcl-2, whereas the RIF-1 line expresses endogenous Bcl-2 under control of its natural promoter. […] Alternatively, W-188 and W-143 may differ in their mechanisms of action, although this conclusion seems less likely in view of the structural similarity of these two compounds.

Water solubility = assay type: physicochemical
[3] = Body weight of RIF-1 tumor bearing mice
From the text: Groups of five mice each were inoculated s.c. with RIF-1 cells. The tumors were allowed to grow for 12 days to a size of 0.5 cm diameter, which was designated day 0. […] The mice were weighed and the tumor size measured every day.

[4] = W-143 100 mg/kg alone, data not shown

Compound: CCC1=C(C)C(=O)NC1C (centres unmarked) [W-143, 3,5-dimethyl-4-ethyl-2-oxo-2,5-dihydropyrrole]
- Sensitization to etoposide-induced apoptosis (HL-60 Bcl-2 cells): sensitize 1L-60-Bcl-2 cells to etoposide-induced apoptosis
- % DNA Fragmentation (HL-60 Bcl-2 cells; Exp 5, etoposide 10 μM + compound 10 μM): 34%
- Toxicity of compound alone (Ramos B lymphoma cells; 20 μg/ml, no Dox): completely nontoxic
- Increase of cytotoxicity mediated by Dox (Ramos B lymphoma cells; compound 20 μg/ml + Dox, FIG. 6): over two fold
- Deaths (mice [1]): All three mice injected with 1000 mg/kg of W-143 died within 24 h
- Histopathology (mice [2]; W-143 200 mg/kg alone, three i.p. injections at two day intervals, day 5): minor vacuolar changes in the liver
- Histopathology (mice [2]; W-143 200 mg/kg alone, day 15): all tissues were normal
- Histopathology (mice [2]; doxorubicin 5 mg/kg + W-143 200 mg/kg, three i.p. injections, day 5): minor vacuolar changes in the liver
- Histopathology (mice [2]; doxorubicin 5 mg/kg + W-143 200 mg/kg, day 15): all tissues were normal
- Inhibition of tumor growth compared to vehicle control (RIF-1 fibrosarcoma; Dox + W-143 100 mg/kg, p=0.005): 70%
- Inhibition of tumor growth compared to vehicle control (RIF-1 fibrosarcoma; Dox + W-143 200 mg/kg, p=0.001): 83%
- Effect on tumor growth (RIF-1 fibrosarcoma; [4]): did not decrease tumor growth
- Effect on tumor growth (RIF-1 fibrosarcoma; W-143 200 mg/kg alone, three injections, FIG. 14): only a small effect on tumor growth
- Effect on tumor growth (RIF-1 fibrosarcoma; W-143 + Dox combined): synergistically inhibited tumor growth
- Bcl-2 expression in tumor cell mitochondria (Bcl-2; Dox + W-143, FIG. 16 lane 10): no detectable Bcl-2
- Bcl-2 expression in tumor cell mitochondria (Bcl-2; W-143 alone, FIG. 16): expressed high levels of Bcl-2
- Water solubility (Water solubility): water soluble; also recorded: water-soluble
- Body weight ([3]; Dox + W-143 100 mg/kg, any time point): did not show any greater weight loss
- Body weight ([3]; Dox + W-143 200 mg/kg, day 13): weighed just as much as mice treated with Dox alone on day 13
- Body weight [3, 4]: weighed similar to the vehicle control mice
